From patent EP2289904A1, “Inhibitors of microbial infections” (Universita' degli Studi di Milano, priority 2009, dated 2011)

Assays:
[1] = system: Ebola virus; conditions: Ebola virus infection model; Reina et al. 2007; cited from earlier work
[2] = biological target: T1, dendritic cell receptor DC-SIGN (Homo sapiens, UniProt Q9NNX6); conditions: Reina et al. 2007; cited from earlier work
T1 sequence (Q9NNX6 1-404): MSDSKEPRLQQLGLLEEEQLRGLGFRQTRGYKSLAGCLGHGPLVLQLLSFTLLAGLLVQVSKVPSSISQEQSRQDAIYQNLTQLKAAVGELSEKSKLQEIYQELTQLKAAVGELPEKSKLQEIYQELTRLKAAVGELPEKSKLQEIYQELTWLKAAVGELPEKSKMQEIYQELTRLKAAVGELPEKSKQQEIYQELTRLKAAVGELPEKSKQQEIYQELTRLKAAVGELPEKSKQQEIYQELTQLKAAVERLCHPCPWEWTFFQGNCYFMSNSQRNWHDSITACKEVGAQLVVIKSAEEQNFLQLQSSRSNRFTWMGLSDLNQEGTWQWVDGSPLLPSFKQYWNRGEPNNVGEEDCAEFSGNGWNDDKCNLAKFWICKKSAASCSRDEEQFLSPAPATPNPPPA

[3] = system: HIV-1 BaL; assay: trans-infection assay, B-THP-1/DC-SIGN cells incubated with inhibitor and washed before adding the virus; conditions: 5 mM, cells washed with buffer before adding virus (BaL); Figure 3
[4] = system: HIV-1 BaL; assay: trans-infection of CD4+ T lymphocytes by B-THP-1/DC-SIGN cells exposed to virus in continued presence of inhibitor, p24 ELISA

## COC(=O)[C@H]1C[C@H](OCCN=[N+]=[N-])[C@@H](O[C@H]2O[C@H](CO)[C@@H](O)[C@H](O)[C@@H]2O)C[C@@H]1C(=O)OC [compound 1]
[1]
  anti-infective action: moderate anti-infective action
[2]
  binding to DC-SIGN: binds

## COC(=O)[C@H]1C[C@H](OC[C@H]2O[C@H](OCCN=[N+]=[N-])[C@@H](O)[C@@H](O)[C@@H]2O)[C@@H](O[C@H]2O[C@H](CO)[C@@H](O)[C@H](O)[C@@H]2O)C[C@@H]1C(=O)OC [compound 2b, α(1,2)α(1,6)pseudomannotriose]
[3]
  antiinfective activity in the trans-infection assay: no antiinfective activity
[4]; HIV-1 BaL, Figure 2
  concentration needed to reach a similar inhibition level, compared with 12: much higher concentration

## OC[C@H]1OC(O)[C@@H](O)[C@@H](O)[C@@H]1O (some centres unmarked) [Man4]
[4]; Human immunodeficiency virus 1, BAL, CD4+ T, read-out: infection level
  activity at 100 µM: ≥ 30%
